From US20030199671A1, “Binding molecules for Fc-region polypeptides” (priority 2001, published 2003)
Positions of bridges follow the written chain, without caps; N, C: chain ends. Residues, ends and D or L forms follow the SMILES beside them. *: point of attachment. 5FAM = O=C1OC2(c3ccc(O)cc3Oc3cc(O)ccc32)c2ccc(C(=O)*)cc21

Experiments:
human plasma IgG1 = target: T1, human plasma IgG1 (Homo sapiens, UniProt P01857); experiment: Fluorescence anisotropy binding, fluorescein-labeled peptide; details: 2 nM labeled peptide; PBS with 0.01% Tween 20
T1 construct: the individual human plasma IgG isoforms: IgG1, IgG2, IgG3, or IgG4; purchased Calbiochem; host or cells: human plasma
T1 sequence (P01857 1-330 isoform P01857-1): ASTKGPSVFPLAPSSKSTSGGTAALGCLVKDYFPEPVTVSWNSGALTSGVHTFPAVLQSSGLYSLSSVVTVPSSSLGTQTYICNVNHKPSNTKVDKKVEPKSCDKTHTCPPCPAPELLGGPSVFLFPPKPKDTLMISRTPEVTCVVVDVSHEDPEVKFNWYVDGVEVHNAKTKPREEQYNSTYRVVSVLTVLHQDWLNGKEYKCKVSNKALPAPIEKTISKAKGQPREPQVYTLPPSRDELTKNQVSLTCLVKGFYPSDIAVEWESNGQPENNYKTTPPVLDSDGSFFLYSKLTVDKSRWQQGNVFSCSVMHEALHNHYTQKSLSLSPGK
Procedure: (§1) All measurements were performed in 384 well microplates with 20 nM fluorescein-labeled peptide and various concentrations of the IgG isoform in a volume of between 10 and 20 μl using a Tecan Polarion fluorescence polarization plate reader. All binding buffers included 0.01% (v/v) Tween 20 to prevent peptide adsorption to the microplate. The binding mixture was equilibrated for 10 minutes in the microplate at 30° C. prior to performing the measurement.
(§2) Peptides were synthesized, fluorescein-labeled and HPLC purified as described above. Binding studies were performed using either a mixture of human plasma IgG isoforms (the Fc protein) or the individual human plasma IgG isoforms: IgG1, IgG2, IgG3, or IgG4.
(§3) Measurements were performed in 384-well microplates with 2 nM fluorescein-labeled peptide and a varied concentration of the IgG isoform target in a volume of 10 μl using a Tecan Polarion fluorescence polarization plate reader. The Fc binding buffer was 50 mM Tris-HCl, 200 mM NaCl, pH 8.0, 0.01% Tween 20. The IgG binding buffer was PBS with 0.01% Tween 20. The binding mixtures were equilibrated for 10 minutes in the microplate at 30° C. prior to performing the measurements.

human plasma IgG2 = target: T2, human plasma IgG2 (Homo sapiens, UniProt P01859); experiment: as above; details: 2 nM labeled peptide; PBS with 0.01% Tween 20
T2 construct: the individual human plasma IgG isoforms: IgG1, IgG2, IgG3, or IgG4; purchased Calbiochem; host or cells: human plasma
T2 sequence (P01859 1-326 isoform P01859-1): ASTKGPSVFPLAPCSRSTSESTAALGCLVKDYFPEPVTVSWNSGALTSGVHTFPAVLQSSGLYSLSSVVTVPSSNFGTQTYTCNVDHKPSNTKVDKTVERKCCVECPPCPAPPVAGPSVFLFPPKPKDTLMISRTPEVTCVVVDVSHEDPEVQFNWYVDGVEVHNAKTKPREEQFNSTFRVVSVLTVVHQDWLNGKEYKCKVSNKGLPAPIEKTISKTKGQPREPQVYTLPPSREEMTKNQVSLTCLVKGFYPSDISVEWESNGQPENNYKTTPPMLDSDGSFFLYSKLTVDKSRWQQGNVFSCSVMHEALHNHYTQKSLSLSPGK
Procedure: as §1, §2, §3

[1] = target: Fc (mixture of human plasma IgG isoforms); experiment: as above; details: 2 nM labeled peptide; 50 mM Tris-HCl, 200 mM NaCl, pH 8.0, 0.01% Tween 20
Procedure: (§4) Peptides were synthesized by BACHEM Bioscience, Inc., (King of Prussia, Pa.), fluorescein labeled and purified by HPLC. Binding studies were performed using either a mixture of human plasma IgG isoforms (the Fc target) or the individual human plasma IgG isoforms: IgG1, IgG2, IgG3, or IgG4. All Fc target proteins were obtained from Calbiochem.
as §1, §2, §3

human plasma IgG4 = target: T3, human plasma IgG4 (Homo sapiens, UniProt P01861); experiment: as above; details: 2 nM labeled peptide; PBS with 0.01% Tween 20
T3 construct: the individual human plasma IgG isoforms: IgG1, IgG2, IgG3, or IgG4; purchased Calbiochem; host or cells: human plasma
T3 sequence (P01861 1-327 isoform P01861-1): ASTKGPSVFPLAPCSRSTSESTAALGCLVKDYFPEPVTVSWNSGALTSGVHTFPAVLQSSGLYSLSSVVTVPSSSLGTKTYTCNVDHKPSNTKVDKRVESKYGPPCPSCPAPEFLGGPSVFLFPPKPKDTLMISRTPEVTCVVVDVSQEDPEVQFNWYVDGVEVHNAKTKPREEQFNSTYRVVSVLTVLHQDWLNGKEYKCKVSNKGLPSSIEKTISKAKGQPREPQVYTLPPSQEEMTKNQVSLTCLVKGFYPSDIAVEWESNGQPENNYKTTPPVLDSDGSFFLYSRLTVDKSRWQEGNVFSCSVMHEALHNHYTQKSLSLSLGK
Procedure: as §4, §1, §2, §3

human IgG1 = target: T4, human IgG1 (Homo sapiens, UniProt P01857); assay type: binding; details: peptide immobilized on NHS activated sepharose 4 fast flow, target ligand density 2.0 μmole/ml; batch filterplate; hIgG1
T4 construct: all human subtypes derived from myeloma patients; purchased Calbiochem 400120; host or cells: myeloma patients
T4 sequence (P01857 1-330 isoform P01857-1): as the sequence (P01857 1-330 isoform P01857-1) above
Summary of the method: (§5)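 Percent bound = control mass minus unbound mass, with unbound IgG read at A280 after 1–1.5 h room-temperature incubation with the peptide resin in PBST pH 7.2 or TBST pH 7.5. Bound IgG was eluted 30–60 min with 0.1 M citrate pH 4.0 and/or bicarbonate pH 8.5. Recovery is given as percent of total load.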

human IgG2 = target: T5, human IgG2 (Homo sapiens, UniProt P01859); assay type: binding; details: peptide immobilized on NHS activated sepharose 4 fast flow, target ligand density 2.0 μmole/ml; batch filterplate; hIgG2
T5 construct: all human subtypes derived from myeloma patients; purchased Calbiochem 400122; host or cells: myeloma patients
T5 sequence (P01859 1-326 isoform P01859-1): as the sequence (P01859 1-326 isoform P01859-1) above
Summary of the method: (§6)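 Read-out is A280 of unbound IgG (1.4 mg/ml extinction coefficient), with percent bound derived against non-filtered or negative controls. Targets were incubated with immobilized peptides in PBST or TBST for 1-1.5 h at room temperature. Hydrolyzed Sepharose and immobilized Protein A serve as negative and positive controls.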

human IgG = assay type: binding; details: batch filterplate; for Batch Binding (% Capture of Total Load) hIgG: peptide immobilized on NHS activated sepharose 4 fast flow, target ligand density 2.0 μmole/ml
Summary of the method: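 Species specificity was assessed by static binding of unfractionated IgG to peptide resin in pH 7.2 phosphate or pH 7.5 Tris buffer with 0.01% Tween 20. Bound fraction was calculated from A280 of unbound target.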

[2] = Solubility in aqueous coupling buffer; assay type: physicochemical; details: aqueous coupling conditions
Text: The varying degree of binding may be due to, in part, to lower coupling efficiencies as a result of varying degrees of solubility in aqueous coupling conditions. […] However, coupling efficiencies of all nine DX253 variants monitored by rp-HPLC was high and averaged>85%. Actual ligand densities were not determined.

IgG3 = IgG3 (Homo sapiens, UniProt P01860); assay type: binding; parameters: all human subtypes derived from myeloma patients; purchased Calbiochem 400124; host or cells: myeloma patients; details: peptide immobilized on NHS activated sepharose 4 fast flow, target ligand density 2.0 μmole/ml; batch filterplate; hIgG3
Chain of IgG3 (P01860 1-377 isoform P01860-1): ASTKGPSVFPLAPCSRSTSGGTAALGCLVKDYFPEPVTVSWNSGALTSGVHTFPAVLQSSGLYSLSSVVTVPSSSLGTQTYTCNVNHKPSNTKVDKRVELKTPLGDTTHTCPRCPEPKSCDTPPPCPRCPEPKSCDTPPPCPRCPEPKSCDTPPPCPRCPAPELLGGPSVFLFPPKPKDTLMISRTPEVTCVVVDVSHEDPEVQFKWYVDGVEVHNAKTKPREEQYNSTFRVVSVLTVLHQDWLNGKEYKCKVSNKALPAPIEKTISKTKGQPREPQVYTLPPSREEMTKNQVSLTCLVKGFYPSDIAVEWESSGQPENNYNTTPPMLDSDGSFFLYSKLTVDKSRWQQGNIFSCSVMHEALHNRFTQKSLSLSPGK
Summary of the method: as §5

IgG4 = IgG4 (Homo sapiens, UniProt P01861); assay type: binding; parameters: all human subtypes derived from myeloma patients; purchased Calbiochem 400126; host or cells: myeloma patients; details: peptide immobilized on NHS activated sepharose 4 fast flow, target ligand density 2.0 μmole/ml; batch filterplate; hIgG4
Chain of IgG4 (P01861 1-327 isoform P01861-1): as the sequence (P01861 1-327 isoform P01861-1) above
Summary of the method: as §6

[3] = cited from earlier work

Row | Compound | KD (μM) IgG1 (human plasma IgG1) | KD (μM) IgG2 (human plasma IgG2) | KD (μM) Fc [1] | KD (μM) IgG4 (human plasma IgG4) | Batch Binding (% Capture of Total Load) hIgG1 (human IgG1) [%] | Batch Binding (% Capture of Total Load) hIgG2 (human IgG2) [%] | Batch Binding (% Capture of Total Load) hIgG (human IgG) [%] | Solubility in aqueous coupling buffer [2] | Batch Binding (% Capture of Total Load) hIgG3 (IgG3) [%] | Batch Binding (% Capture of Total Load) hIgG4 (IgG4) [%] | Binding properties / profile relative to parent peptide (human IgG; human IgG and subtypes) | pKa of the carboxylic acid group [3]
1 | CC(=O)N[C@@H](C)C(=O)NCC(=O)N[C@@H](CCCCN)C(=O)N[C@@H](Cc1ccc(O)cc1)C(=O)N[C@@H](Cc1c[nH]c2ccccc12)C(=O)N[C@H]1CSSC[C@@H](C(=O)N[C@@H](CCCCN)C(=O)N[C@H](C(=O)NCC(=O)N[C@H](C(=O)N2CCC[C@H]2C(=O)NCC(=O)N2CCC[C@H]2C(=O)N[C@@H](CCC(=O)O)C(=O)NCC(=O)NCC(=O)NCC(=O)N[C@@H](CCCCNC(=O)c2ccc3c(c2)C(=O)OC32c3ccc(O)cc3Oc3cc(O)ccc32)C(N)=O)[C@@H](C)O)[C@@H](C)O)NC(=O)[C@H](CCC(N)=O)NC(=O)[C@H](CC(C)C)NC(=O)CNC(=O)[C@H](Cc2c[nH]c3ccccc23)NC(=O)[C@H](Cc2ccccc2)NC(=O)[C@H](CO)NC1=O [DX300] (Ac-AGKYWCSFWGLQCKTGTPGPEGGGK(5FAM)-NH2; disulfide 6-13) | No binding | No binding | No binding | No binding | – | – | – | – | – | – | – | –
2 | CC(=O)N[C@@H](CO)C(=O)N[C@@H](CCCNC(=N)N)C(=O)N[C@@H](C)C(=O)N[C@H]1CSSC[C@@H](C(=O)N[C@@H](C)C(=O)NCC(=O)N[C@@H](Cc2c[nH]cn2)C(=O)N[C@@H](CCC(=O)O)C(=O)N2CCC[C@H]2C(=O)NCC(=O)N2CCC[C@H]2C(=O)N[C@@H](CCC(=O)O)C(=O)NCC(=O)NCC(=O)NCC(=O)N[C@@H](CCCCN)C(N)=O)NC(=O)[C@H](Cc2c[nH]c3ccccc23)NC(=O)[C@H](C(C)C)NC(=O)[C@H](CC(C)C)NC(=O)[C@H](C)NC(=O)CNC(=O)[C@H](CO)NC(=O)[C@H](Cc2c[nH]c3ccccc23)NC(=O)[C@H](CC(=O)O)NC(=O)[C@H](CCCNC(=N)N)NC(=O)[C@H](CO)NC1=O [DX1139] (Ac-SRACSRDWSGALVWCAGHEPGPEGGGK-NH2; disulfide 4-15) | – | – | – | – | 43 | 34 | 36 | not fully soluble | 0 | 22 | – | –
3 | O=C(O)c1ccccc1-c1c2cc(F)c(=O)cc-2oc2cc(O)c(F)cc12 [Oregon Green] | – | – | – | – | – | – | – | – | – | – | – | 4.7

Now from value to compound, other results behind:

Row | KD (μM) IgG1 (human plasma IgG1) | KD (μM) IgG2 (human plasma IgG2) | KD (μM) Fc [1] | KD (μM) IgG4 (human plasma IgG4) | Batch Binding (% Capture of Total Load) hIgG1 (human IgG1) [%] | Batch Binding (% Capture of Total Load) hIgG2 (human IgG2) [%] | Batch Binding (% Capture of Total Load) hIgG (human IgG) [%] | Solubility in aqueous coupling buffer [2] | Batch Binding (% Capture of Total Load) hIgG3 (IgG3) [%] | Batch Binding (% Capture of Total Load) hIgG4 (IgG4) [%] | Binding properties / profile relative to parent peptide (human IgG; human IgG and subtypes) | Compound | pKa of the carboxylic acid group [3]
4 | – | – | – | – | 43 | 29 | 40 | not fully soluble | 0 | 20 | – | CC(=O)N[C@@H](CCCNC(=N)N)C(=O)N[C@@H](CCCNC(=N)N)C(=O)N[C@@H](C)C(=O)N[C@H]1CSSC[C@@H](C(=O)N[C@@H](C)C(=O)NCC(=O)N[C@@H](Cc2c[nH]cn2)C(=O)N[C@@H](CCC(=O)O)C(=O)N2CCC[C@H]2C(=O)NCC(=O)N2CCC[C@H]2C(=O)N[C@@H](CCC(=O)O)C(=O)NCC(=O)NCC(=O)NCC(=O)N[C@@H](CCCCN)C(N)=O)NC(=O)[C@H](Cc2c[nH]c3ccccc23)NC(=O)[C@H](C(C)C)NC(=O)[C@H](CC(C)C)NC(=O)[C@H](C)NC(=O)CNC(=O)[C@H](CO)NC(=O)[C@H](Cc2c[nH]c3ccccc23)NC(=O)[C@H](CC(=O)O)NC(=O)[C@H](CCCNC(=N)N)NC(=O)[C@H](CO)NC1=O [DX1140] (Ac-RRACSRDWSGALVWCAGHEPGPEGGGK-NH2; disulfide 4-15) | –
5 | – | – | – | – | 83 | 80 | 73 | not fully soluble | 0 | 50 | – | CC(=O)NCC(=O)N[C@H]1CSSC[C@@H](C(=O)N[C@@H](C)C(=O)NCC(=O)N[C@@H](Cc2c[nH]cn2)C(=O)N[C@@H](CCC(=O)O)C(=O)N2CCC[C@H]2C(=O)NCC(=O)N2CCC[C@H]2C(=O)N[C@@H](CCC(=O)O)C(=O)NCC(=O)NCC(=O)NCC(=O)N[C@@H](CCCCN)C(N)=O)NC(=O)[C@H](Cc2c[nH]c3ccccc23)NC(=O)[C@H](C(C)C)NC(=O)[C@H](CC(C)C)NC(=O)[C@H](C)NC(=O)CNC(=O)[C@H](CO)NC(=O)[C@H](Cc2c[nH]c3ccccc23)NC(=O)[C@H](CC(=O)O)NC(=O)[C@H](CCCNC(=N)N)NC(=O)[C@H](CO)NC1=O [DX1146] (Ac-GCSRDWSGALVWCAGHEPGPEGGGK-NH2; disulfide 2-13) | –
6 | – | – | – | – | 83 | 76 | 74 | not fully soluble | 0 | 47 | almost identical to those of DX253 | CC(=O)N[C@H]1CSSC[C@@H](C(=O)N[C@@H](C)C(=O)NCC(=O)N[C@@H](Cc2c[nH]cn2)C(=O)N[C@@H](CCC(=O)O)C(=O)N2CCC[C@H]2C(=O)NCC(=O)N2CCC[C@H]2C(=O)N[C@@H](CCC(=O)O)C(=O)NCC(=O)NCC(=O)NCC(=O)N[C@@H](CCCCN)C(N)=O)NC(=O)[C@H](Cc2c[nH]c3ccccc23)NC(=O)[C@H](C(C)C)NC(=O)[C@H](CC(C)C)NC(=O)[C@H](C)NC(=O)CNC(=O)[C@H](CO)NC(=O)[C@H](Cc2c[nH]c3ccccc23)NC(=O)[C@H](CC(=O)O)NC(=O)[C@H](CCCNC(=N)N)NC(=O)[C@H](CO)NC1=O [DX1147] (Ac-CSRDWSGALVWCAGHEPGPEGGGK-NH2; disulfide 1-12) | –
